From patent US4876260A, “Oxathiolanes” (State of Israel, Israel Institute of Biological Research, priority 1988, dated 1989)

Columns and labels:
[1] = system: mice; assay: Pharmacodynamic profile and general toxicity in mice; type: in vivo, CD-1 mice
Protocol: Male white mice of the CD-1 strain supplied by Charles River Ltd. (U.K.) were used throughout. An acclimatization period of at least three days was allowed between arrival and commencement of a particular experimental series. The animals were fed a complete commercial pelleted rodent diet without restriction during the acclimatization and study periods. Animals had free access to tap water. Body weights during testing were mostly within 20-28 g.
Test materials were prepared as aqueous solutions in physiological saline (0.9% NaCl), up to a maximum concentration of 10 mg./ml. All materials were freshly prepared on the morning prior to each dosing session. Dosages were expressed gravimetrically (mg./kg.), in terms of the materials as received.
Groups of mice (mostly n=5) received either i.v. or oral administration of the test materials at various dose levels. Dose volumes appropriate for respective dose levels selected, were determined for each animal according to body weights on the day of dosing. Any behavioral changes occurring during one to two hours after administration, as well as incidence of death up to 24 hours after dosing were recorded.

[2] = molecular target: T1, M1 muscarinic receptors (3H-PZ sites, forebrain) (Rattus norvegicus, UniProt P08482); assay: Displacement of 3H-Pirenzepine (3H-PZ, selective M1 antagonist) from rat forebrain homogenate; type: binding; conditions: for M1 selectivity (in words): from Tables 2A, 2B, 2C
T1 sequence (P08482 1-460): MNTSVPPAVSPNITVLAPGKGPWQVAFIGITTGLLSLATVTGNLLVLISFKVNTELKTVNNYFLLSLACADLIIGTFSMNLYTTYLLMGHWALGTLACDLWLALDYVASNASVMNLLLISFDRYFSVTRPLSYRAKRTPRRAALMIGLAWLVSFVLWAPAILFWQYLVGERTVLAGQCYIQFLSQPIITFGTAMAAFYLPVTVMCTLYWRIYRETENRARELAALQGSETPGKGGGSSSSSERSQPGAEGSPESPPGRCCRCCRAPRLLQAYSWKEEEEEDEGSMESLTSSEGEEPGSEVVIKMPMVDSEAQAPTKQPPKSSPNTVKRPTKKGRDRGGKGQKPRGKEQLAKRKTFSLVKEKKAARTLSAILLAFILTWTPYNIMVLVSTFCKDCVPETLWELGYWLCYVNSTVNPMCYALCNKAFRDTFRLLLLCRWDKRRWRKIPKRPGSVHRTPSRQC

[3] = molecular target: T2, M1 muscarinic receptors (3H-PZ sites, frontal cortex) (Rattus norvegicus, UniProt P08482); assay: Displacement of 3H-PZ from rat frontal cortex homogenate; type: binding; conditions: for Ki: (a') frontal cortex, read-out: Ki(3H-PZ)
T2 sequence (P08482 1-460): T1 sequence (P08482 1-460)

[4] = molecular target: muscarinic receptors (3H-QNB sites, frontal cortex); type: binding, rat; conditions: (b') frontal cortex
[5] = molecular target: T3, muscarinic receptors (3H-QNB sites, cerebellum, mainly M2) (Rattus norvegicus, UniProt P10980); assay: biochemical; type: binding; conditions: Ki(3H-QNB), (b") cerebellum
T3 sequence (P10980 1-466): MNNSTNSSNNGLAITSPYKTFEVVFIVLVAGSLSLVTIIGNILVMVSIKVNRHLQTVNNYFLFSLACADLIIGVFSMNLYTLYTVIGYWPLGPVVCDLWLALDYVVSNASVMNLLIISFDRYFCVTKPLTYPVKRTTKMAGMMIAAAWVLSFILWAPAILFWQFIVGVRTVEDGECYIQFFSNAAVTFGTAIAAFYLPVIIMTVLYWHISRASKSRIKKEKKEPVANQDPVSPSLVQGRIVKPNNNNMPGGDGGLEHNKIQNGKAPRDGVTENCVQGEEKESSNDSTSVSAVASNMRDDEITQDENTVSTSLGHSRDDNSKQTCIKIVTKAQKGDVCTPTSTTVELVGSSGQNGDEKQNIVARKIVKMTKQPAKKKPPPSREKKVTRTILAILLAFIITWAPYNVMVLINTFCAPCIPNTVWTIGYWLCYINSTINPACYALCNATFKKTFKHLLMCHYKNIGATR

[6] = system: muscarinic receptors (3H-QNB sites, cerebellum, mainly M2); assay: biochemical; type: binding, rat
[7] = molecular target: muscarinic receptors (3H-CD sites, frontal cortex); assay: Displacement of 3H-CD from rat frontal cortex homogenate; type: binding; conditions: (c') frontal cortex
[8] = molecular target: muscarinic receptors (3H-QNB sites, M1 and M2, forebrain); type: binding, rat; conditions: (b) forebrain
[9] = system: isolated guinea-pig ileum; assay: Contraction of isolated guinea-pig ileum preparation; conditions: listed as (+)-AF122B
Description: From this Table, it appears that compounds (III) were not so effective in contracting the guinea pig ileum preparation.

[10] = system: AF64A-induced cognitive impairment (passive avoidance); assay: Step-through passive avoidance in AF64A- and saline-injected rats; type: in vivo; conditions: for Retention Latency: 72 hour retention test
Description: Development of potential drugs for the treatment of Alzheimer's disease requires their evaluation in appropriate animal models for this disease. […] This hippocampal cholinergic deficiency is accompanied by statistically significant cognitive impairments (inter alia) in step-through passive avoidance (PA). The present PA experiment investigated the possibility of reversing such impairments by administration of (+)-III (AF122B).
[…] post-operation, the AF64A and saline-injected groups were randomly subdivided into two treatment sub-groups. Sub-group 1 was treated with 1 mg./kg. i.p. (+)-III (AF122B), while sub-group 2 was treated with […]. i.p. saline. The drug or saline were administered immediately after shock.

[11] = 10 mg/kg i.v., listed as (+)-III AF122B
[12] = 25 mg/kg i.v., listed as (+)-III AF122B
[13] = 50 mg/kg i.v., listed as (+)-III AF122B
[14] = 200 mg/kg p.o., listed as (+)-III AF122B
[15] = AF64A-injected rats, 1 mg./kg. i.p.
[16] = saline-injected rats, 1 mg./kg. i.p.

SMILES: C[C@H]1O[C@@]2(CN3CCC2CC3)CS1(=O)=O (relative stereo) [compound 14, cis-2-methylspiro(1,3-oxathiolan-5,3')quinuclidine-3,3-dioxide]
- Analgesia (nonresponsiveness to tail pinch), No. affected/total treated ([1]; 50 mg/kg i.v.): 3/5
- Mortality, No. dead/total treated ([1]; 50 mg/kg i.v.): 0/5
- Analgesia (nonresponsiveness to tail pinch), No. affected/total treated ([1]; 100 mg/kg i.v.): 5/5
- Mortality, No. dead/total treated ([1]; 100 mg/kg i.v.): 0/5
- Mortality, No. dead/total treated ([1]; 100 mg/kg p.o.): 0/5
- Analgesia (nonresponsiveness to tail pinch), No. affected/total treated ([1]; 200 mg/kg p.o.): 5/5
- Mortality, No. dead/total treated ([1]; 200 mg/kg p.o.): 0/5
- potency (in words) ([2]; compared with (±)-cis-(II)): losing some of its potency
- M1 selectivity (in words) [2]: high M1 selectivity
- M1 selectivity (in words) ([2]; listed as (±)-cis-(II)-sulfone): still preserved an outstanding profile as judged by its M1 selectivity (ratio a':c')
- a':b', Ki(3H-PZ):Ki(3H-QNB) [3]: 0.18
- Ki [3]: 5.5 ± 0.43 µM
- a':c', Ki(3H-PZ):Ki(3H-CD) ([3]; (g) frontal cortex ratio): 1.8
- Ki [4]: 34.1 ± 3 µM
- Ki [5]: 44.1 ± 6.5 µM
- a':b" ([6]; (i) Ki(3H-PZ) frontal cortex : Ki(3H-QNB) cerebellum): 2.6
- b':b" ([6]; (k) Ki(3H-QNB) frontal cortex : Ki(3H-QNB) cerebellum): 0.77
- Ki [7]: 3.06 ± 2 µM

SMILES: CC1OCC2(CN3CCC2CC3)S1 (centres unmarked) [compound 7, 2-methylspiro(1,3-oxathiolan-4,3')quinuclidine]
- a:b, Ki(3H-PZ):Ki(3H-QNB) [2]: 0.17
- Ki ([2]; (a) forebrain): 1.22 ± 0.4 µM
- M1 selectivity (in words) ([2]; listed as Compound (III)): M1 selectivity is preserved even in the mixture of the geometrical isomers
- Ki [8]: 7 ± 0.5 µM

SMILES: CC1OCC2(CN3CCC2CC3)S1 (single isomer, unassigned) [compound 10, 2-methylspiro(1,3-oxathiolan-4,3')quinuclidine]
- Convulsive seizures, No. affected/total treated ([1]; 10 mg/kg i.v.): 2/8
- Mortality, time after drug administration ([1]; 10 mg/kg i.v.): 5 s
- Respiratory distress, No. affected/total treated ([1]; 10 mg/kg i.v.): 1/8
- Tremors, No. affected/total treated ([1]; 10 mg/kg i.v.): 2/8
- Analgesia (nonresponsiveness to tail pinch), No. affected/total treated [1, 11]: 5/8
- Mortality, No. dead/total treated [1, 11]: 1/8
- Convulsive seizures, No. affected/total treated [1, 12]: 5/5
- Mortality, No. dead/total treated [1, 12]: 4/5
- Mortality, time after drug administration [1, 12]: 30 s
- Respiratory distress, No. affected/total treated [1, 12]: 1/5
- Tremors, No. affected/total treated [1, 12]: 4/5
- Mortality, No. dead/total treated [1, 13]: 2/2
- Mortality, time after drug administration [1, 13]: 5 s
- Mortality, time after drug administration ([1]; 100 mg/kg i.v., immed = immediately): immed
- Mortality, No. dead/total treated ([1]; 100 mg/kg i.v., listed as (+)-III AF122B): 2/2
- Analgesia (nonresponsiveness to tail pinch), No. affected/total treated ([1]; 100 mg/kg p.o.): 5/5
- Respiratory distress, No. affected/total treated ([1]; 100 mg/kg p.o.): 1/5
- Vocalization, No. affected/total treated ([1]; 100 mg/kg p.o.): 1/4
- Mortality, No. dead/total treated ([1]; 100 mg/kg p.o., listed as (+)-III AF122B): 0/5
- Tremors, No. affected/total treated ([1]; 200 mg/kg p.o.): 3/5
- Altered motor activity [1, 14]: a+h
- Analgesia (nonresponsiveness to tail pinch), No. affected/total treated [1, 14]: 5/5
- Convulsive seizures, No. affected/total treated [1, 14]: 5/5
- Mortality, No. dead/total treated [1, 14]: 0/5
- Respiratory distress, No. affected/total treated [1, 14]: 4/5
- Vocalization, No. affected/total treated [1, 14]: 2/5
- Ki [3]: 7.4 µM
- Contraction of guinea pig ileum (in words) [9]: active enantiomer
- Passive avoidance retention (in words) [10, 15]: improved the passive avoidance retention of AF64A-injected rats
- Retention Latency [10, 15]: 549.5 ± 29.1 s
- Effect on retention latency (in words) ([10]; AF64A-injected rats, 1 mg./kg. i.p., p<0.01): prolonged the retention latency of AF64A-injected rats
- Initial latency (training) (in words) ([10]; between any of the groups): No significant differences were found during training
- Effect on retention latency (in words) [10, 16]: no significant effect on the retention latency of saline-injected rats
- Retention Latency [10, 16]: 552 ± 33.7 s
